Measurements reported in PMC12655744, “From Bench to Bioactivity: An Integrated Medicinal Development Based on Kinetic and Simulation Assessment of Pyrazolone-Oxadiazole Coupled Benzamide as Promising Inhibitors of Diabetes Mellitus” (Pharmaceuticals, 2025).

What was measured:
Assay type in all cases: biochemical
diabetes enzymes = assay: Enzyme kinetic studies (mode of inhibition); conditions: Figure 8
From the text: Enzyme kinetics studies provide the most vital information for how drugs work against the disease, such as binding of the inhibitor with its target, and the concentration required to achieve the desired effects. This study explains that the amount of the drug will be affected, slowing down the biological process. The different patterns for slowing down a process are obtained in the form of curves or slopes. This also provides how various forms of inhibitors or derivatives cause the reaction kinetics to slow in unique ways by adding more inhibitors. […] The substitution of unique functional groups in various sites of the phenyl ring might be responsible for its remarkable efficiency. The graphical curves in Figure 8 show the direct competition of the analog against the substrate for the same spot on the enzyme. […]
100 µL. […] The absorbance at 405 nm was measured using a microplate reader. […] The percentage inhibition was calculated using the following equation, where “Abs” represents absorb- […]
The inhibitory potential of α-Amylase enzyme was evaluated through the standard methodology. […]
Following this, (250 µL) of α-amylase was immediately introduced after heating the mix-ture in hot water. […] Spectrophotometric anal-ysis at 540 nm was conducted to determine absorbance. […]

alpha-amylase = assay: Alpha-amylase activity assay (starch/DNS, 540 nm); conditions: mean ± SEM; read-out: IC50 = α-amylase µM ± SEM
Procedure: % inhibition = (Abs control − Abs sample) × 100
S.3 Alpha-Amylase Activity Assay:
The inhibitory potential of α-Amylase enzyme was evaluated through the standard methodology. A test tube containing (250 µL) of the compound being tested at various concentrations (50–250 µg/mL), (250 µL) of [1% (w/v)] starch solution, and (250 µL) of (1U/mL) alpha-amylase solution was prepared. Post-incubation at 20ᵒC for 3 min, the en-zymatic process was halted by adding (500 µL) of dinitro salicylic acid (color Reagent).
Following this, (250 µL) of α-amylase was immediately introduced after heating the mix-ture in hot water. The mixture was subsequently subjected to heating at 85 ᵒC for duration of 15 min, followed by a 5-min incubation period at room temperature. (4500 µL) of dis-tilled water was added, resulting in a final volume of (6000 µL). Spectrophotometric anal-ysis at 540 nm was conducted to determine absorbance. A control sample devoid of the […]
equation is used for calculation. […]
(§1) Radius of 12 Å around the Montbretin A binding site was defined for enzyme active site. Accomplishment of docking calculations was achieved using Chem PLP scoring function.
(§2) The geometric parameters and energies were computed by density functional theory at the B3LYP/CEP-631G level of theory, using the […] 98W package of the pro- […]
(§3) grams, on geometries that were optimized at CEP-631G basis set.

alpha-glucosidase = assay: Alpha-glucosidase inhibition assay (absorbance 405 nm); conditions: mean ± SEM; read-out: IC50 = α-glucosidase µM ± SEM
Procedure: 100 µL. The reaction was […] by adding 100 µL of sodium carbonate (200 mM). The absorbance at 405 nm was measured using a microplate reader. This experimental proce-dure was conducted in triplicate, and a control group without the tested compound was included for comparison. […] The percentage […]
inhibition was calculated using the following equation, where “Abs” represents absorb- […]
% inhibition = (Abs control − Abs sample) × 100 […]
as §1, §2, §3

Compound | Mode of inhibition (diabetes enzymes) | IC50 (alpha-amylase) [µM] | IC50 (alpha-glucosidase) [µM]
O=C1C=C(Nc2nnc(NC(=O)c3c(O)cc(O)cc3O)o2)N=N1 [Compound 3] | competitive inhibitor | 3.2 ± 0.2 | 3.6 ± 0.1
Cc1ccc(Cl)c(C(=O)Nc2nnc(NC3=CC(=O)N=N3)o2)c1 [Compound 8] | – | 11.7 ± 0.2 | 12.1 ± 0.1
O=C1C=C(Nc2nnc(NC(=O)c3ccc(Br)cc3)o2)N=N1 [Compound 9] | – | 15.3 ± 0.1 | 16.1 ± 0.2
